Measurements reported in US20230026611A1, “ARYL HETEROCYCLIC COMPOUNDS AS Kv1.3 POTASSIUM SHAKER CHANNEL BLOCKERS” (D. E. Shaw Research, LLC, priority 2019, published 2023).

What was measured:
[1] = molecular target: T1, Kv1.3 potassium channel (Homo sapiens, UniProt P22001); assay: Kv1.3 potassium channel blocker activity, automated whole-cell patch clamp (Patchliner) in CHO-K1 cells stably expressing Kv1.3; assay type: cell-based; details: CHO-K1 cells stably expressing Kv1.3; patch clamp, current inhibition; read-out: Kv1.3 IC50
T1 construct: expressed in transfected cells
T1 sequence (P22001 whole entry): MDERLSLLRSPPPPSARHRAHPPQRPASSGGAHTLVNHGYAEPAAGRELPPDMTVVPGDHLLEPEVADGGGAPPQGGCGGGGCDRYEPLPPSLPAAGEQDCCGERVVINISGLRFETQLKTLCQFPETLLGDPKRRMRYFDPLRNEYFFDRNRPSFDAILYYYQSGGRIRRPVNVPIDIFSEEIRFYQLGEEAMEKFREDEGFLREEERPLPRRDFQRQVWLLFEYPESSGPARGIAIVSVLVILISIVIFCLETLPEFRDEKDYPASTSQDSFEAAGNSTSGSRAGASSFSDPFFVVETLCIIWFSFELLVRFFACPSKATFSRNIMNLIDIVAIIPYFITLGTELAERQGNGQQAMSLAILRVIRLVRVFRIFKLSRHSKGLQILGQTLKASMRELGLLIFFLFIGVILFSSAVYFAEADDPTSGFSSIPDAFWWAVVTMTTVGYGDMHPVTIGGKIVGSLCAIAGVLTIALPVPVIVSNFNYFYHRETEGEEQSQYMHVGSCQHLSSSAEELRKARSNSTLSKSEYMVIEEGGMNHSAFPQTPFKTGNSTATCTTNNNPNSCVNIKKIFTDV
Protocol: Example 82. Evaluation of Kv1.3 potassium channel blocker activities
This assay is used to evaluate the disclosed compounds' activities as Kv1.3 potassium channel blockers.
CHO-K1 cells stably expressing Kv1.3 were grown in DMEM containing 10% heat-inactivated FBS, 1 mM sodium pyruvate, 2 mM L-glutamine, and G418 (500 μg/ml).
All compounds were dissolved in DMSO at 30 mM.
The currents were evoked by applying 100 ms depolarizing pulses from −90 mV (holding potential) to +40 mV were applied with 0.1 Hz frequency. […] 10-second breaks were used between pulse trains (see Table A below).
Data were sampled at 10 kHz without filtering. Passive leak currents were subtracted online using a P/4 procedure (HEKA Elektronik Dr. Schulze GmbH). […] Total compound incubation time before the next pulse train was not longer than 10 seconds. Peak current inhibition was observed during compound equilibration.

[2] = molecular target: hERG channel (Homo sapiens, UniProt Q12809); assay: hERG electrophysiology, automated whole-cell patch clamp (Patchliner) in CHO-K1 cells stably expressing hERG
hERG channel, sequence (Q12809 whole entry): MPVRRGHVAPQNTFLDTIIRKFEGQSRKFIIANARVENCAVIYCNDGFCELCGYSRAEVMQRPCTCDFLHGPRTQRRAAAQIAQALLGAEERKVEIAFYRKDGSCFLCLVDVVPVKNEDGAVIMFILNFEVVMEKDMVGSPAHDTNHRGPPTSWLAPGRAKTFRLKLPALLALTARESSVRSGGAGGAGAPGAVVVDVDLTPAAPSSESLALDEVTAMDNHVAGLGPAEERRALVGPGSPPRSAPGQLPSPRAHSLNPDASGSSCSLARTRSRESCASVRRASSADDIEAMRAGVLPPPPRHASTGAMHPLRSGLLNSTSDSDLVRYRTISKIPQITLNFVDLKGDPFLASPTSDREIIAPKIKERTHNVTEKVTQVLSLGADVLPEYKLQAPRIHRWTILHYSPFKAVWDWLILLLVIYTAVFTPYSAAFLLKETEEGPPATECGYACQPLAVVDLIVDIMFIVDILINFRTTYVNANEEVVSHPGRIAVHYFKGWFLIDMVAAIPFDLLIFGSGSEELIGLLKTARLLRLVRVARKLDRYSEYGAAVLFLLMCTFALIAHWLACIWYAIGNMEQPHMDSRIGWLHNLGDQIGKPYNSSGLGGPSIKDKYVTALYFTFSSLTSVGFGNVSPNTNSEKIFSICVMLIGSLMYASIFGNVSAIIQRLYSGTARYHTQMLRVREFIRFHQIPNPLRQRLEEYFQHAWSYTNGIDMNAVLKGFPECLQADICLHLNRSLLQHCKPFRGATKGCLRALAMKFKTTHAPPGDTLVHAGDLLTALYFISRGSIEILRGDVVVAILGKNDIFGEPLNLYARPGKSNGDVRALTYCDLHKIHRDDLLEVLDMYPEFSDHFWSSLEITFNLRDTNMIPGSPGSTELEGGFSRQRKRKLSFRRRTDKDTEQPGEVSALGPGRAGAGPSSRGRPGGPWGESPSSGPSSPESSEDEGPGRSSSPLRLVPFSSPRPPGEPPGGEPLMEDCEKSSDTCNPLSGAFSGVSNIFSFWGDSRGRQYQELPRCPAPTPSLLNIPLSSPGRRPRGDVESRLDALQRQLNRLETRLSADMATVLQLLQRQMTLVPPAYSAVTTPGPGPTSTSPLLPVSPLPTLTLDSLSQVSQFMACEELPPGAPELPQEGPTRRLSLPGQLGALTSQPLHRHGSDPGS
Protocol: Evaluation of hERG Activities
This assay is used to evaluate the disclosed compounds's inhibition activities against the hERG channel.
CHO-K1 cells stably expressing hERG were grown in Ham's F-12 Medium with glutamine containing 10% heat-inactivated FBS, 1% penicillin/streptomycin, hygromycin (100 μg/ml) and G418 (100 μg/ml). Cells were grown in culture flasks at 37° C. in a 5% CO2-humidified incubator.
The cells were bathed in an extracellular solution containing 140 mM NaCl, 4 mM KCl, 2 mM CaCl2), 1 mM MgCl2, 5 mM Glucose, 10 mM HEPES; pH adjusted to 7.4 with NaOH; 295-305 mOsm. The internal solution contained 50 mM KCl, 10 mM NaCl, 60 mM KF, 20 mM EGTA, 10 mM HEPES; pH adjusted to 7.2 with KOH; 285 mOsm. All compounds were dissolved in DMSO at 30 mM. Compound stock solutions were freshly diluted with external solution to concentrations of 30 nM, 100 nM, 300 nM, 1 μM, 3 μM, 10 μM, 30 μM and 100 μM. The highest content of DMSO (0.3%) was present in 100 μM.
The voltage protocol (see Table B) was designed to simulate voltage changes during a cardiac action potential with a 300 ms depolarization to +20 mV (analogous to the plateau phase of the cardiac action potential), a repolarization for 300 ms to −50 mV (inducing a tail current) and a final step to the holding potential of −80 mV. The pulse frequency was 0.3 Hz. Control (compound-free) and compound pulse trains for each compound concentration applied contained 70 pulses.
Whole-cell current recordings and compound application were enabled by means of an automated patch clamp platform Patchliner (Nanion). EPC 10 patch clamp amplifier (HEKA) along with Patchmaster software (HEKA Elektronik Dr. Schulze GmbH) was used for data acquisition. Data were sampled at 10 kHz without filtering. Increasing compound concentrations were applied consecutively to the same cell without washouts in between.
AUC and PEAK values were obtained with Patchmaster (HEKA Elektronik Dr. Schulze GmbH). To determine IC50 the last single pulse in the pulse train corresponding to a given compound concentration was used. Obtained AUC and PEAK values in the presence of compound were normalized to control values in the absence of compound. Using Origin (OridinLab), IC50 was derived from data fit to Hill equation: Icompound/control=(100−A)/(1+([compound]/IC50)nH)+A, where IC50 is the concentration at which current inhibition is half-maximal, [compound] is the applied compound concentration, A is the fraction of current that is not blocked and nH is the Hill coefficient.

With `NC(=O)[C@@H]1C[C@H](c2c(O)ccc(Cl)c2Cl)CCN1` (single isomer, unassigned) [Compound 73] as the molecule, how does the IC50 [1] read?
The IC50 was under 1 µM.

And the IC50 [2]?
The IC50 was over 30 µM.

`CC(=O)NC[C@H]1C[C@@H](c2c(O)ccc(Cl)c2Cl)CCN1` (single isomer, unassigned) [Compound 86] was tested. Which IC50 [1] did it give?
The IC50 was under 1 µM.

What about the IC50 [2] of the same molecule?
Its IC50 is over 30 µM.

What does the source list for `CC(=O)NC[C@@H]1CC(c2c(O)ccc(Cl)c2Cl)CCN1` (single isomer, unassigned) [Compound 89]?
IC50 [1]: < 1 µM; IC50 [2]: > 30 µM

With `Nc1nnc([C@@H]2C[C@H](c3c(O)ccc(Cl)c3Cl)CCN2)o1` (single isomer, unassigned) [Compound 105] as the molecule, how does the IC50 [1] read?
The IC50 was under 1 µM.

And the IC50 [2]?
Its IC50 is over 30 µM.

For `CS(=O)(=O)NC[C@@H]1C[C@H](c2c(O)ccc(Cl)c2Cl)CCN1` (single isomer, unassigned) [Compound 107], which IC50 [1] is on record?
Its IC50 is under 1 µM.

What about the IC50 [2] of the same molecule?
The IC50 was over 30 µM.

For `NC(=O)C[C@@H]1C[C@H](c2c(O)ccc(Cl)c2Cl)CCN1` (single isomer, unassigned) [Compound 109], which IC50 [1] is on record?
Its IC50 is under 1 µM.

What about the IC50 [2] of the same molecule?
The IC50 was over 30 µM.

What does the source list for `O=C(NC1CNC1)[C@H]1CC[C@H](c2c(O)ccc(Cl)c2Cl)N1` (single isomer, unassigned) [Compound 118]?
IC50 [1]: < 1 µM; IC50 [2]: > 100 µM

For `O=C(NC1CNC1)[C@@H]1CN[C@@H](c2c(O)ccc(Cl)c2Cl)C1` (single isomer, unassigned) [Compound 122], which IC50 [1] is on record?
Its IC50 is under 1 µM.

And the IC50 [2]?
Its IC50 is over 100 µM.

How did the IC50 [1] turn out when `O=C([C@H](O)CO)N1CCC(c2c(O)ccc(Cl)c2Cl)CC1` [Compound 2, (2R)-1-[4-(2,3-dichloro-6-hydroxyphenyl)piperidin-1-yl]-2,3-dihydroxypropan-1-one] was run?
Its IC50 is under 1 µM.

And the IC50 [2]?
Its IC50 is over 30 µM.

`Oc1cc(Cl)c(Cl)cc1C1CCNCC1` [Compound 3, 4,5-dichloro-2-(piperidin-4-yl)phenol] was tested. Which IC50 [1] did it give?
Its IC50 is under 1 µM.

And the IC50 [2]?
Its IC50 is under 30 µM.

What does the source list for `CN1CCC(c2cc(Cl)c(Cl)cc2O)CC1` [Compound 4, 4,5-dichloro-2-(1-methylpiperidin-4-yl)phenol]?
IC50 [1]: < 1 µM; IC50 [2]: < 30 µM

How did the IC50 [1] turn out when `Oc1cc(Cl)c(Cl)cc1N1CCNCC1` [Compound 5, 4,5-dichloro-2-(piperazin-1-yl)phenol] was run?
The IC50 was under 10 µM.

What about the IC50 [2] of the same molecule?
The IC50 was under 30 µM.

Which results are given for `O=S(=O)(NCC1CC(c2c(O)ccc(Cl)c2Cl)CCN1)c1cccnc1` [Compound 6, N-(2R,4S)-rel-[[4-(2,3-dichloro-6-hydroxyphenyl)piperidin-2-yl]methyl]pyridine-3-sulfonamide]?
IC50 [1]: < 1 µM; IC50 [2]: > 30 µM

With `NC1CCN(c2cc(Cl)c(Cl)cc2O)CC1` [Compound 8, 2-(4-aminopiperidin-1-yl)-4,5-dichlorophenol] as the molecule, how does the IC50 [1] read?
Its IC50 is under 1 µM.

And the IC50 [2]?
The IC50 was under 30 µM.

`Oc1cc(Cl)c(Cl)cc1C1=CCNCC1` [Compound 9, 4,5-dichloro-2-(1,2,3,6-tetrahydropyridin-4-yl)phenol] was tested. Which IC50 [1] did it give?
Its IC50 is under 1 µM.

And the IC50 [2]?
The IC50 was under 30 µM.

What does the source list for `Cc1cc(O)c(C2CCNCC2)cc1Cl` [Compound 12, 4-chloro-5-methyl-2-(piperidin-4-yl)phenol]?
IC50 [1]: < 10 µM; IC50 [2]: < 30 µM

With `Oc1cc(Cl)c(Cl)cc1C1CCCNC1` (stereo not shown) [Compound 16, 4,5-dichloro-2-(piperidin-3-yl)phenol] as the molecule, how does the IC50 [1] read?
Its IC50 is under 1 µM.

What about the IC50 [2] of the same molecule?
The IC50 was under 30 µM.

With `Oc1ccc2ccccc2c1C1CCNCC1` [Compound 18, 1-(piperidin-4-yl)naphthalen-2-ol] as the molecule, how does the IC50 [1] read?
Its IC50 is under 1 µM.

What about the IC50 [2] of the same molecule?
The IC50 was under 30 µM.

Which results are given for `Oc1cc(Cl)c(Cl)cc1C1CCNC1` (stereo not shown) [Compound 21, 4,5-dichloro-2-(pyrrolidin-3-yl)phenol]?
IC50 [1]: < 1 µM; IC50 [2]: < 30 µM

`CN(C)C1CCN(c2cc(Cl)c(Cl)cc2O)CC1` [Compound 23, 4,5-dichloro-2-[4-(dimethylamino)piperidin-1-yl]phenol] was tested. Which IC50 [1] did it give?
The IC50 was under 1 µM.

What about the IC50 [2] of the same molecule?
The IC50 was under 30 µM.

For `CNC1CCN(c2cc(Cl)c(Cl)cc2O)CC1` [Compound 24, 4,5-dichloro-2-[4-(methylamino)pip-eridin-1-yl]phenol], which IC50 [1] is on record?
Its IC50 is under 1 µM.

And the IC50 [2]?
The IC50 was under 30 µM.

`CC1(N)CCN(c2cc(Cl)c(Cl)cc2O)CC1` [Compound 25, 2-(4-amino-4-methylpiperidin-l-yl)-4,5-dichlorophenol] was tested. Which IC50 [1] did it give?
Its IC50 is under 1 µM.

What about the IC50 [2] of the same molecule?
The IC50 was under 30 µM.

For `OCC1CC(c2cc(Cl)c(Cl)cc2O)CCN1` (stereo not shown) [Compound 27, 4,5-dichloro-2-[2-(hydroxymethyl)piperidin-4-yl]phenol], which IC50 [1] is on record?
The IC50 was under 10 µM.

What about the IC50 [2] of the same molecule?
Its IC50 is over 30 µM.

How did the IC50 [1] turn out when `NCC1CCN(c2cc(Cl)c(Cl)cc2O)CC1` [Compound 28, 2-[4-(aminomethyl)pip-eridin-1-yl]-4,5-dichlorophenol] was run?
The IC50 was under 1 µM.

What about the IC50 [2] of the same molecule?
Its IC50 is under 30 µM.

For `NCC1CN(c2cc(Cl)c(Cl)cc2O)C1` [Compound 31, 2-(3-(aminomethyl)aze-tidin-1-yl)-4,5-dichlorophenol], which IC50 [1] is on record?
Its IC50 is under 1 µM.

What about the IC50 [2] of the same molecule?
The IC50 was under 30 µM.

With `OCC1CC(c2cc(Cl)c(Cl)cc2O)CN1` (stereo not shown) [Compound 36, 4,5-dichloro-2-(5-(hydroxymethyl)pyrrolidin-3-yl)phenol] as the molecule, how does the IC50 [1] read?
Its IC50 is under 10 µM.

And the IC50 [2]?
The IC50 was under 30 µM.

Which IC50 [1] does the source give for `Oc1cc(Cl)c(Cl)cc1C1CCCNCC1` (stereo not shown) [Compound 39, 2-(azepan-4-yl)-4,5-dichlorophenol] here?
Its IC50 is under 1 µM.

And the IC50 [2]?
The IC50 was under 30 µM.

For `Oc1cc(Cl)c(Cl)cc1C1CCCCNC1` (stereo not shown) [Compound 40, 2-(azepan-3-yl)-4,5-dichlorophenol], which IC50 [1] is on record?
The IC50 was under 10 µM.

And the IC50 [2]?
Its IC50 is under 30 µM.

Which IC50 [1] does the source give for `Oc1cc(Cl)c(Cl)cc1C1CCNC(C2CC2)C1` (stereo not shown) [Compound 43, 4,5-dichloro-2-(2-cyclopropylpiperidin-4-yl)phenol] here?
Its IC50 is under 1 µM.

What about the IC50 [2] of the same molecule?
The IC50 was under 30 µM.

How did the IC50 [1] turn out when `Oc1cc(Cl)c(Cl)c(Cl)c1C1CCNCC1` [Compound 44, 3,4,5-trichloro-2-(piperidin-4-yl)phenol] was run?
Its IC50 is under 1 µM.

What about the IC50 [2] of the same molecule?
Its IC50 is under 30 µM.

What does the source list for `Oc1c(C2CCNCC2)cc(Cl)c(Cl)c1Cl` [Compound 54, 2,3,4-trichloro-6-(piperidin-4-yl)phenol]?
IC50 [1]: < 10 µM; IC50 [2]: < 30 µM

How did the IC50 [1] turn out when `Oc1ccc(Cl)c(Cl)c1C1CCNCC1` [Compound 55, 3,4-dichloro-2-(piperidin-4-yl)phenol] was run?
The IC50 was under 1 µM.

And the IC50 [2]?
The IC50 was under 30 µM.

What does the source list for `Oc1cc(Cl)cc(Cl)c1C1CCNCC1` [Compound 57, 3,5-dichloro-2-(piperidin-4-yl)phenol]?
IC50 [1]: < 1 µM; IC50 [2]: < 30 µM

Which results are given for `NC(=O)N1CCC(c2c(O)cc(Cl)c(Cl)c2Cl)CC1` [Compound 60, 4-(2,3,4-trichloro-6-hydroxyphenyl)piperidine-1-carboxamide]?
IC50 [1]: < 1 µM; IC50 [2]: < 30 µM

Which IC50 [1] does the source give for `NC(=O)C1CC(c2c(O)cc(Cl)c(Cl)c2Cl)CCN1` (stereo not shown) [Compound 61, 4-(2,3,4-trichloro-6-hydroxyphenyl)piperidine-2-carboxamide] here?
Its IC50 is under 1 µM.

What about the IC50 [2] of the same molecule?
The IC50 was under 30 µM.

With `CNC(=O)C1CC(c2c(O)ccc(Cl)c2Cl)CCN1` (stereo not shown) [Compound 72, 4-(2,3-dichloro-6-hydroxyphenyl)-N-methylpiperidine-2-carboxamide] as the molecule, how does the IC50 [1] read?
The IC50 was under 1 µM.

And the IC50 [2]?
The IC50 was over 30 µM.

For `CC(=O)NCC1CC(c2c(O)ccc(Cl)c2Cl)CCN1` (stereo not shown) [Compound 79, N-[[4-(2,3-dichloro-6-hydroxyphenyl)piperidin-2-yl]methyl]acetamide], which IC50 [1] is on record?
Its IC50 is under 1 µM.

And the IC50 [2]?
The IC50 was over 30 µM.

Which IC50 [1] does the source give for `O=C([C@H]1CCNC1)N1CCC(c2c(O)cc(Cl)c(Cl)c2Cl)CC1` [Compound 91, 3,4,5-trichloro-2-[1-[(3S)-pyrrolidine-3-carbonyl]piperidin-4-yl]phenol] here?
The IC50 was under 1 µM.

What about the IC50 [2] of the same molecule?
The IC50 was under 30 µM.
